Source: the OPERA property sets (Mansouri et al. 2018)

| SMILES | logP |
| --- | --- |
| Cc1cccc(C)c1NC(=O)CCC(C)N (stereo not given) | 1.08 |
| O=C(OOC(=O)c1ccccc1)c1ccccc1 | 3.46 |
| CC(C)(C)c1ccc(CC(=O)O)cc1 | 2.98 |
| CC(C)NC(=O)COc1ccc(OCCNCC(O)COc2ccccc2)cc1 (stereo not given) | 2.4 |
| C=C1CCC2C(C1)c1c(OCc3ccc(-c4ccccc4)cc3)cc(CCCCC)cc1OC2(C)C (stereo not given) | 11.3 |
| CCc1ccc(CC(=O)O)cc1 | 2.25 |
| O=C(c1ccc(C(F)(F)F)cc1)c1ccc2n1CCC2C(=O)O (stereo not given) | 3.71 |
| CNC(=C[N+](=O)[O-])NCCSCc1ccc(CN(C)C)o1 | 0.27 |
| CCN1CC(C(O)C(CC2CCCCC2)NC(=O)C(Cc2cc[nH]n2)NC(=O)C(CC(=O)N2CCOCC2)Cc2ccccc2)OC1=O (stereo not given) | 2.49 |
| CCCc1ccc(CC(=O)O)cc1 | 3 |
| CC(C)NCC1CCc2cc(CO)c([N+](=O)[O-])cc2N1 (stereo not given) | 2.24 |
| Cc1ccc(S(=O)(=O)NC(=O)NN2CCCCCC2)cc1 | 2.69 |
| CC(C(=O)NCC(O)CO)n1ccnc1[N+](=O)[O-] (stereo not given) | -1.64 |
| O=C(O)/C=C/Oc1ccc(Cl)cc1Cl | 3.46 |
| c1ccc(-c2ccc(-c3ccccc3)cc2)cc1 | 6.03 |
| CCn1c(=O)[nH]c(=O)c2[nH]cnc21 | -0.11 |
| Nc1nc2c(ncn2COC(CO)CO)c(=O)[nH]1 | -1.66 |
| CO[C@@]1(NC(=O)CSCC#N)C(=O)N2C(C(=O)O)=C(CSc3nnnn3C)CS[C@@H]21 | -0.6 |
| CCCCCc1cc(O)c2c(c1)OC(C)(C)C1CC=C(C)CC21 (stereo not given) | 7.41 |
| CC(=O)OC(C(=O)ON=C(C)C12CC3CC(CC(C3)C1)C2)c1ccccc1 (stereo not given) | 5.89 |
| O=C1C=CC(=O)C(c2ccccc2)=C1 | 1.95 |
| Cc1cccc(C)c1NC(=O)C(C)N (stereo not given) | 0.76 |

| SMILES | logP |
| --- | --- |
| C=C(C)C(=O)OCC(CC)CCCC (stereo not given) | 4.54 |
| CNCCc1ccccc1 | 1.91 |
| CCCCc1ccncc1 | 3.13 |
| Cc1ncsc1CCCl | 2.12 |
| CC(=O)c1ccccc1Br | 2.28 |
| O=C1C(N2CCN(CCO)CC2)=C(N2CC2)C(=O)C(N2CCN(CCO)CC2)=C1N1CC1 | -0.77 |
| c1ccc(-c2ncc3ccccc3n2)cc1 | 3.42 |
| CC1=C(C(=O)Nc2ccccc2)S(=O)CCO1 (stereo not given) | 0.64 |
| O=C1C2C3C=CC(C3)C2C(=O)N1CCCCN1CCN(c2ncccn2)CC1 (stereo not given) | 1.36 |
| COc1cc(Cc2cnc(N)nc2N)ccc1N(C)C | 1.87 |
| OC(Cn1ccnc1)(c1ccc(F)cc1)c1cccc(-c2ccncc2)c1 (stereo not given) | 2.91 |
| COc1cc(Cc2cnc(N)nc2N)c(I)c(OC)c1OC | 1.79 |
| Cc1cc(Br)cc(C)c1N=C1NCCN1 | 2.8 |
| O=C(Cn1ccnc1[N+](=O)[O-])NC(CO)(CO)CO | -1.77 |
| CCN(CC)CCNC(=O)c1cc(Br)c(N)cc1OC | 2.83 |
| O=[N+]([O-])c1ccc(O)cc1O | 1.05 |
| C=C1C(=O)OC2C1C(OC(=O)C(C)=CC)CC1(CO1)C1C(OC(C)=O)C=C(C)C21O (stereo not given) | 0.76 |
| CCc1ccc2cc3ccccc3cc2c1 | 5.85 |
| Cc1ccc(Cl)c(N=C2NCCN2)c1 | 1.83 |
| CC1OC(OC2CCC3(C=O)C4CCC5(C)C(C6=CC(=O)OC6)CCC5(O)C4CCC3(O)C2)C(O)C(O)C1O (stereo not given) | -0.48 |
| CC(C)Oc1ccc(C(=O)c2ccc3n2CCC3C(=O)O)cc1 (stereo not given) | 3.38 |
| COc1ncnc2c1ncn2C1OC(CO)C(OC(=O)Cc2ccccc2)C1OC(=O)Cc1ccccc1 (stereo not given) | 3.48 |

| SMILES | logP |
| --- | --- |
| c1ccc2c(c1)ccc1cc3c(ccc4ccccc43)cc12 | 6.75 |
| Fc1ccc(F)c(F)c1 | 2.52 |
| CCCCCCC(C)(C)c1cc(O)c2c(c1)OC(C)(C)C1CCC(C=O)=CC21 (stereo not given) | 8.03 |
| Nc1ccc(O)c2ncccc12 | -0.11 |
| C=C1C(=O)OC2C1C(OC(=O)C=C(C)C)CC1=CC(CC3(C)OC23)OC1=O (stereo not given) | 1.05 |
| Nc1ncc(Cc2cccc(Cl)c2)c(N)n1 | 2.29 |
| Cc1ccc(N2Cn3c(nc4ccccc4c3=O)C2C)cc1 (stereo not given) | 2.16 |
| C=CCC(NC(=O)C(Cc1ccccc1)NS(=O)(=O)N1CCOCC1)C(=O)NC(COC(F)(F)C(=O)NCCN1CCOCC1)CC1CCCCC1 (stereo not given) | 3.17 |
| CC(=O)Nc1nc(N2CCN(C)CC2)c(Cl)nc1[N+](=O)[O-] | 0.5 |
| CCN1CC(C(O)C(CC2CCCCC2)NC(=O)C(Cc2cnc[nH]2)NC(=O)C(CC(=O)N(C)CCOCOC)Cc2ccccc2)OC1=O (stereo not given) | 2.49 |
| COc1ccc(Cc2cnc(N)nc2N)cc1N(C)C | 1.68 |
| COc1cc(OC)c(Cl)c(Cc2cnc(N)nc2N)c1Cl | 2.55 |
| CCCCCCC(C)(C)c1ccc(C2CC(O)CCC2C)c(O)c1 (stereo not given) | 7.49 |
| CCOC(=O)c1ccc(S(N)(=O)=O)cc1 | 1.17 |
| CNC(=O)NS(=O)(=O)c1ccc(Cl)cc1 | 1.16 |
| COC(=O)N(C)SN(C)C(=O)ON=C(C)SC | 1.4 |
| O=C(O)C=COc1ccccc1 | 2.27 |
| CCCOc1ccc(CC(=O)O)cc1 | 2.31 |
| O=C(CCN1CCC(O)(c2ccc(Cl)cc2)CC1)c1ccc(F)cc1 | 3.24 |
| O=C(O)c1cc2ccccc2cc1O | 3.05 |
| O=C1CCC(c2ccccc2)CC1 | 2.3 |
